From ChEMBL document CHEMBL1201862, “PubChem BioAssay data set” (2004)
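Following 48 hours of exposure in 96-well plates, responses at five concentrations were used to interpolate endpoints linearly. The concentration for 50% growth inhibition is given as GI50.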 Calls of active or inactive are those of the source. Rule as the data show it: active = GI50 up to about 1.1 µM and inactive = higher.

Key:
Test in all cases: growth of human tumour cells (NCI), 48 h
[1] = test system: ACHN
[2] = test system: A549
[3] = test system: HT-29
[4] = test system: M14
[5] = test system: UO-31
[6] = test system: SF-268
[7] = test system: SK-OV-3
[8] = test system: UACC-62
[9] = test system: OVCAR-4
[10] = test system: OVCAR-8
[11] = test system: KM12
[12] = test system: SNB-19
[13] = test system: SW-620
[14] = test system: CCRF-CEM
[15] = test system: NCI-H23
[16] = test system: TK-10
[17] = test system: MOLT-4
[18] = test system: U-251
[19] = test system: HOP-62
[20] = test system: SK-MEL-2

Measured: GI50

COc1ccc(N[C@H](C[S+]([O-])c2ccc(C)cc2)C(F)(F)C(F)(F)F)cc1 (stereo partly specified)
inactive: [1] > 100 µM | [2] 99.5 µM | [3] > 100 µM | [4] 97.3 µM | [5] > 100 µM | [6] 52.8 µM | [7] 44.1 µM | [8] 43 µM | [9] 95.7 µM | [10] 90.6 µM | [11] > 100 µM | [12] 35.8 µM | [13] > 100 µM | [14] > 100 µM | [15] 43.5 µM | [16] > 100 µM | [17] > 100 µM | [18] 37.4 µM | [19] 57.5 µM

Cc1ccc(/C=C/C(=O)C(C)C)cc1
inactive: [1] 83.8 µM | [2] > 100 µM | [3] 37.3 µM | [4] 58.7 µM | [5] 54.1 µM | [6] > 100 µM | [7] 74.3 µM | [8] 37.2 µM | [9] > 100 µM | [10] 96.8 µM | [20] 36.3 µM | [11] 48.8 µM | [12] 84.7 µM | [13] 47.5 µM | [14] 22.9 µM | [15] 46.6 µM | [16] > 100 µM | [17] 30.2 µM | [18] 24.5 µM

O=[N+]([O-])c1ccc(S[C@@H]2[C@H]3c4c(-c5ccccc5)[nH]c(-c5ccccc5)c4[C@@H]2C[C@H]3Cl)cc1
inactive: [1] 3.7 µM | [2] 2.74 µM | [3] 3.37 µM | [4] 3.23 µM | [5] 1.62 µM | [6] 2.68 µM | [7] 9.98 µM | [8] 2.83 µM | [9] 1.6 µM | [10] 4.38 µM | [20] 11.2 µM | [11] 3.05 µM | [12] 4.6 µM | [13] 3.37 µM | [15] 2.38 µM | [16] 4.99 µM | [18] 4.17 µM | [19] 3.56 µM

COC(=O)C1=C(O)C(C(=O)OC)[C@@]2(O)[C@@H](C(=O)OC)[C@H](C)C[C@@H]1[C@@H]2C(=O)OC (stereo partly specified)
inactive: [1] 59.8 µM | [3] 27.6 µM | [4] 20.6 µM | [5] 21.5 µM | [7] 26 µM | [8] 23.7 µM | [20] 21.4 µM | [11] 23.5 µM | [12] 34.2 µM | [14] 28.1 µM | [15] 37.5 µM | [16] 57.9 µM | [17] 28.3 µM | [18] 20.5 µM | [19] 31.8 µM
